PubChem BioAssay AID248 (DTP/NCI, 2004)
Inconclusive results and toxic doses are left out.

System: L1210 leukemia ip in BDF1 mice, survival T/C
Assay: NCI In Vivo Anticancer Drug Screen. Data for tumor model L1210 Leukemia (intraperitoneal) in B6D2F1 (BDF1) mice
Details: endpoint: mean survival time, higher = longer survival
In short: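 Transplantable tumor model; survival measured in treated vs vehicle control mice. Value = treated/control.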

[1] = dose: 100.0 mg/kg/injection, schedule: Q04DX003 (ip), vehicle: saline with Tween-80
[2] = dose: 200.0 mg/kg/injection, schedule: Q04DX003 (ip), vehicle: saline with Tween-80
[3] = dose: 400.0 mg/kg/injection, schedule: Q04DX003 (ip), vehicle: saline with Tween-80
[4] = dose: 100.0 mg/kg/injection, schedule: Q01DX009 (ip), vehicle: saline with Tween-80
[5] = dose: 200.0 mg/kg/injection, schedule: Q01DX009 (ip), vehicle: saline with Tween-80

## O=C(O)CC[P+](c1ccccc1)(c1ccccc1)c1ccccc1
[1]
  T/C: 90 % of control
[2]
  T/C: 98 % of control
[3]
  T/C: 93 % of control

## CN(CO)c1nc(N(C)CO)nc(N(C)CO)n1
dose: 6.25 mg/kg/injection, schedule: Q01DX009 (ip), vehicle: saline
  T/C: 109 % of control
dose: 12.5 mg/kg/injection, schedule: Q01DX009 (ip), vehicle: saline
  T/C: 113 % of control
dose: 25.0 mg/kg/injection, schedule: Q01DX009 (ip), vehicle: saline
  T/C: 120 % of control
dose: 100.0 mg/kg/injection, schedule: Q01DX009 (ip), vehicle: saline
  T/C: 166 % of control
dose: 200.0 mg/kg/injection, schedule: Q01DX009 (ip), vehicle: saline
  T/C: 86 % of control

## Cc1cc([N+](=O)[O-])c(N/N=C/c2ccccc2Cl)c([N+](=O)[O-])c1
dose: 100.0 mg/kg/injection, schedule: Q01DX009 (ip), vehicle: Klucel (hydroxypropylcellulose) (HPC)
  T/C: 101 % of control
dose: 200.0 mg/kg/injection, schedule: Q01DX009 (ip), vehicle: Klucel (hydroxypropylcellulose) (HPC)
  T/C: 95 % of control
dose: 400.0 mg/kg/injection, schedule: Q01DX009 (ip), vehicle: Klucel (hydroxypropylcellulose) (HPC)
  T/C: 95 % of control

## COC(=O)C(C)CC(C)(C)[N+](=O)[O-] (centres undefined)
[4]
  T/C: 97 % of control
[5]
  T/C: 103 % of control
dose: 400.0 mg/kg/injection, schedule: Q01DX009 (ip), vehicle: saline with Tween-80
  T/C: 97 % of control

## Clc1ccc(C[As+](c2ccccc2)(c2ccccc2)c2ccccc2)cc1
dose: 20.0 mg/kg/injection, schedule: Q01DX001 (ip), vehicle: saline
  T/C: 97 % of control

## Cc1nc(N)[nH]c(=O)c1CCC(C)C
dose: 100.0 mg/kg/injection, schedule: Q04DX002 (ip), vehicle: Klucel (hydroxypropylcellulose) (HPC)
  T/C: 93 % of control
dose: 200.0 mg/kg/injection, schedule: Q04DX002 (ip), vehicle: Klucel (hydroxypropylcellulose) (HPC)
  T/C: 100 % of control
dose: 400.0 mg/kg/injection, schedule: Q04DX002 (ip), vehicle: Klucel (hydroxypropylcellulose) (HPC)
  T/C: 96 % of control

## ICc1cccc(CI)c1
dose: 6.25 mg/kg/injection, schedule: Q01DX009 (ip), vehicle: carboxymethylcellulose (CMC)
  T/C: 100 % of control
dose: 6.25 mg/kg/injection, schedule: Q04DX003 (ip), vehicle: carboxymethylcellulose (CMC)
  T/C: 111 % of control
dose: 12.5 mg/kg/injection, schedule: Q01DX001 (ip), vehicle: other
  T/C: 95 % of control
dose: 12.5 mg/kg/injection, schedule: Q01DX009 (ip), vehicle: carboxymethylcellulose (CMC)
  T/C: 94 % of control
dose: 12.5 mg/kg/injection, schedule: Q04DX003 (ip), vehicle: carboxymethylcellulose (CMC)
  T/C: 97 % of control
dose: 25.0 mg/kg/injection, schedule: Q01DX001 (ip), vehicle: other
  T/C: 95 % of control
dose: 25.0 mg/kg/injection, schedule: Q04DX003 (ip), vehicle: carboxymethylcellulose (CMC)
  T/C: 92 % of control

## O=c1cc(Nc2cccc3cc4ccccc4cc23)[nH]c(=O)[nH]1
dose: 38.0 mg/kg/injection, schedule: Q01DX001 (ip), vehicle: Klucel (hydroxypropylcellulose) (HPC)
  T/C: 93 % of control
dose: 75.0 mg/kg/injection, schedule: Q01DX001 (ip), vehicle: Klucel (hydroxypropylcellulose) (HPC)
  T/C: 93 % of control
dose: 150.0 mg/kg/injection, schedule: Q01DX001 (ip), vehicle: Klucel (hydroxypropylcellulose) (HPC)
  T/C: 90 % of control

## CC(=O)NC1C(OCc2ccccc2)OC(COCc2ccccc2)C(OCc2ccccc2)C1OCc1ccccc1 (centres undefined)
dose: 100.0 mg/kg/injection, schedule: Q01DX001 (ip), vehicle: saline with Tween-80
  T/C: 86 % of control
dose: 200.0 mg/kg/injection, schedule: Q01DX001 (ip), vehicle: saline with Tween-80
  T/C: 94 % of control
dose: 400.0 mg/kg/injection, schedule: Q01DX001 (ip), vehicle: saline with Tween-80
  T/C: 94 % of control

## O=S1CCCCO1 (centres undefined)
dose: 37.5 mg/kg/injection, schedule: Q01DX009 (ip), vehicle: saline
  T/C: 96 % of control
dose: 75.0 mg/kg/injection, schedule: Q01DX001 (ip), vehicle: saline
  T/C: 101 % of control
dose: 75.0 mg/kg/injection, schedule: Q01DX009 (ip), vehicle: saline
  T/C: 91 % of control
dose: 150.0 mg/kg/injection, schedule: Q01DX001 (ip), vehicle: saline
  T/C: 101 % of control
dose: 150.0 mg/kg/injection, schedule: Q01DX009 (ip), vehicle: saline
  T/C: 96 % of control
dose: 300.0 mg/kg/injection, schedule: Q01DX001 (ip), vehicle: saline
  T/C: 104 % of control

## CC1CC(C)(C)N=C(C2(c3ccccc3)CC2)O1 (centres undefined)
dose: 25.0 mg/kg/injection, schedule: Q01DX009 (ip), vehicle: saline with Tween-80
  T/C: 102 % of control
dose: 50.0 mg/kg/injection, schedule: Q01DX009 (ip), vehicle: saline with Tween-80
  T/C: 98 % of control
dose: 50.0 mg/kg/injection, schedule: Q04DX003 (ip), vehicle: saline with Tween-80
  T/C: 88 % of control
[4]
  T/C: 100 % of control
[1]
  T/C: 95 % of control
[5]
  T/C: 98 % of control

## CCn1c(=S)[nH]c(=O)c2n[nH]nc21
[1]
  T/C: 88 % of control
[2]
  T/C: 89 % of control
[3]
  T/C: 93 % of control

## CCN(CC)C(=O)Nc1cccc(OC(=O)NC(C)(C)C)c1
[1]
  T/C: 99 % of control
[2]
  T/C: 103 % of control
[3]
  T/C: 93 % of control
